Experimental data reported in ChEMBL document CHEMBL5465560, “Selectivity Literature for EUbOPEN Chemogenomic Library” (2024).

How the values were obtained:
[1] = molecular target: MAP kinase-activated protein kinase 2 (Homo sapiens, UniProt P49137); assay: Selectivity interaction (KinomeScan (DiscoverX)) EUB0000666a MAPKAPK2; conditions: at 10 µM
[2] = molecular target: Serine/threonine-protein kinase 16 (Homo sapiens, UniProt O75716); assay: Selectivity interaction (KinomeScan (DiscoverX)) EUB0001868a STK16; conditions: at 1 µM
[3] = molecular target: Receptor tyrosine-protein kinase erbB-4 (Homo sapiens, UniProt Q15303); assay: Selectivity interaction (SelectScreen profiling (Invitrogen)) EUB0000607a ERBB4; conditions: at 2 µM
[4] = molecular target: Casein kinase I isoform gamma-2 (Homo sapiens) (UniProt P78368); assay: Selectivity interaction (KinomeScan (DiscoverX)) EUB0000607a CSNK1G2; conditions: at 10 µM
[5] = molecular target: STE20/SPS1-related proline-alanine-rich protein kinase (Homo sapiens) (UniProt Q9UEW8); assay: Selectivity interaction (ActivX KiNativ screen (kinase selectivity in THP-1 cell lysates)) EUB0000639a STK39; type: subcellular; conditions: lysate
[6] = molecular target: Eukaryotic elongation factor 2 kinase (Homo sapiens, UniProt O00418)
Peregrin (Homo sapiens) = molecular target: T1, Peregrin (Homo sapiens) (UniProt P55201); assay: Selectivity interaction (Bromodomain panel (DSF asssay)) EUB0000270b BRPF1
T1 sequence (whole entry): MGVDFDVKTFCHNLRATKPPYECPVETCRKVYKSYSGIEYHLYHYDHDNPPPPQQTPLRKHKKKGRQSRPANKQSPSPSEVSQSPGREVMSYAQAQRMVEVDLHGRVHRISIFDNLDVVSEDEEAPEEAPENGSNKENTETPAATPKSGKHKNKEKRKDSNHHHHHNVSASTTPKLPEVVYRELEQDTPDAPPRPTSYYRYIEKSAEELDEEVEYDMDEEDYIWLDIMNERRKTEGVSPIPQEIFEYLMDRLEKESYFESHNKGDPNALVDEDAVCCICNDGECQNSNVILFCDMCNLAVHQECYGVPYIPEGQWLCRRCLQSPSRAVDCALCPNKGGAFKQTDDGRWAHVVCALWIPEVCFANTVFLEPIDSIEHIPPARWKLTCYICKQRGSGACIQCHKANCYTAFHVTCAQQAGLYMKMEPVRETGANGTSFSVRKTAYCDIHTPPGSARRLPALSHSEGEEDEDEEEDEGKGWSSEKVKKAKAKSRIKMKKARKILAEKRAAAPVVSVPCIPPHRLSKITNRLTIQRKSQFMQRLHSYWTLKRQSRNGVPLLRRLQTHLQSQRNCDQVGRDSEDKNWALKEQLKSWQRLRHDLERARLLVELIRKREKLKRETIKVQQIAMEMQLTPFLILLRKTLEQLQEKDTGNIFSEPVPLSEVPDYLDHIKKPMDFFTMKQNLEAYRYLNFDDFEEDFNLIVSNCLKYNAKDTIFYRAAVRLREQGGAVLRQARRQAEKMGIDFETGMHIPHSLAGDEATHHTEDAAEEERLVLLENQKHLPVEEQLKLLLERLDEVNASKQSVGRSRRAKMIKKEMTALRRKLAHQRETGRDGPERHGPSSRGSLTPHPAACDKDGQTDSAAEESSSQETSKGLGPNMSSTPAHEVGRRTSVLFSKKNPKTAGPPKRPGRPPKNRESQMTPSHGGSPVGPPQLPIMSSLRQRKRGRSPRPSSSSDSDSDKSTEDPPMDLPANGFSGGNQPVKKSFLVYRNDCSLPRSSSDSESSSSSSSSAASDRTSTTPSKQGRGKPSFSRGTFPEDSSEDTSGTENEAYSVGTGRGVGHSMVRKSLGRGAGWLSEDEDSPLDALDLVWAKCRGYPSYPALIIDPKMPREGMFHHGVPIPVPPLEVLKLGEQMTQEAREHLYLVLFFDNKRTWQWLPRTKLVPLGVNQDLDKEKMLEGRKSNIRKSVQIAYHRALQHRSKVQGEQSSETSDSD

[7] = molecular target: T2, Serine/threonine-protein kinase RIO1 (Homo sapiens) (UniProt Q9BRS2); assay: Selectivity interaction (KinomeScan (DiscoverX)) EUB0000092b RIOK1; conditions: at 10 µM
T2 sequence (whole entry): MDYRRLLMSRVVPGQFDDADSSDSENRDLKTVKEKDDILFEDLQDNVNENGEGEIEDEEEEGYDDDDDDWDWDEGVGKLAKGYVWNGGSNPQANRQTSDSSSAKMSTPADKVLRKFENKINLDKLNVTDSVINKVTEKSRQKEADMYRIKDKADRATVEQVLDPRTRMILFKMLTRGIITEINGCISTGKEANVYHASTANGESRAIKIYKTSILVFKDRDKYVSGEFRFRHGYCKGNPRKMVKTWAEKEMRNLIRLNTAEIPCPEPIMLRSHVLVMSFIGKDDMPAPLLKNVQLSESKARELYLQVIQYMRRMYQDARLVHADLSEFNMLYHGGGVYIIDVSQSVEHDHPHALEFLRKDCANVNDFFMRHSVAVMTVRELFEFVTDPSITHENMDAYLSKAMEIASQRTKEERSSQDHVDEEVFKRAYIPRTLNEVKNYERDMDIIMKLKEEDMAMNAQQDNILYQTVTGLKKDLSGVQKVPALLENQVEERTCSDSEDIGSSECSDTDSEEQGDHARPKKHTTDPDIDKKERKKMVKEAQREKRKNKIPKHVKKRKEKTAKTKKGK

[8] = molecular target: NT-3 growth factor receptor (Homo sapiens, UniProt Q16288); conditions: at 10 µM
[9] = molecular target: Phosphatidylinositol 4,5-bisphosphate 3-kinase catalytic subunit gamma isoform (Homo sapiens) (UniProt P48736); assay: Selectivity interaction (KinomeScan (DiscoverX)) EUB0001619a PIK3CG; conditions: at 1 µM
[10] = molecular target: Calcium/calmodulin-dependent protein kinase type II subunit beta (Homo sapiens) (UniProt Q13554); assay: Selectivity interaction (KinomeScan (DiscoverX)) EUB0001619a CAMK2B; conditions: at 1 µM
Calcium/calmodulin-dependent protein kinase type II subunit beta (Homo sapiens), sequence (Q13554 whole entry): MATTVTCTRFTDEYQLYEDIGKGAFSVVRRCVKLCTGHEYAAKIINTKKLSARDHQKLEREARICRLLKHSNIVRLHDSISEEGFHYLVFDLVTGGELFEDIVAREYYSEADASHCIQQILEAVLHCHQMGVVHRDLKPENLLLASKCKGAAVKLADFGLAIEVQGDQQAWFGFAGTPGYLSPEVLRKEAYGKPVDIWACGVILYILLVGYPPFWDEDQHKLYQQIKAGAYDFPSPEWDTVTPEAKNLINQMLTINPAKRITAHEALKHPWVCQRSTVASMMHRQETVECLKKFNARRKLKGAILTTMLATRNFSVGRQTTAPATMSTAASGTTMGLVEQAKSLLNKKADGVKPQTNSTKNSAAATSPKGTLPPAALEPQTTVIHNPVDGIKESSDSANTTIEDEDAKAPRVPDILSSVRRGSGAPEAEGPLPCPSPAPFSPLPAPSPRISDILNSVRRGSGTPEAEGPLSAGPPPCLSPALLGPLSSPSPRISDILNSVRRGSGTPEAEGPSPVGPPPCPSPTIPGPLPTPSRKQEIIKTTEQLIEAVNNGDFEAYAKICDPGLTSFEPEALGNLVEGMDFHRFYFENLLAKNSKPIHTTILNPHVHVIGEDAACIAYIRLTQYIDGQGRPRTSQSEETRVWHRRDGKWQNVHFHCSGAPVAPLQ

Serine/threonine-protein kinase 16, sequence (O75716 whole entry): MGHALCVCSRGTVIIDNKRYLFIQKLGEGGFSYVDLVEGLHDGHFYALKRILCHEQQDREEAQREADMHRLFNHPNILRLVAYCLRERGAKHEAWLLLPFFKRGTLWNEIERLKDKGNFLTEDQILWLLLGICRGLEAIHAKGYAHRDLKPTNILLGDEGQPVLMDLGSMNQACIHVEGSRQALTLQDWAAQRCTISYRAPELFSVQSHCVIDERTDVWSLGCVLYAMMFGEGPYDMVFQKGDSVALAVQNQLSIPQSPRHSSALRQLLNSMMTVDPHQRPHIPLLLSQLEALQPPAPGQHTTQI
Phosphatidylinositol 4,5-bisphosphate 3-kinase catalytic subunit gamma isoform (Homo sapiens), sequence (P48736 whole entry, looked up, canonical isoform): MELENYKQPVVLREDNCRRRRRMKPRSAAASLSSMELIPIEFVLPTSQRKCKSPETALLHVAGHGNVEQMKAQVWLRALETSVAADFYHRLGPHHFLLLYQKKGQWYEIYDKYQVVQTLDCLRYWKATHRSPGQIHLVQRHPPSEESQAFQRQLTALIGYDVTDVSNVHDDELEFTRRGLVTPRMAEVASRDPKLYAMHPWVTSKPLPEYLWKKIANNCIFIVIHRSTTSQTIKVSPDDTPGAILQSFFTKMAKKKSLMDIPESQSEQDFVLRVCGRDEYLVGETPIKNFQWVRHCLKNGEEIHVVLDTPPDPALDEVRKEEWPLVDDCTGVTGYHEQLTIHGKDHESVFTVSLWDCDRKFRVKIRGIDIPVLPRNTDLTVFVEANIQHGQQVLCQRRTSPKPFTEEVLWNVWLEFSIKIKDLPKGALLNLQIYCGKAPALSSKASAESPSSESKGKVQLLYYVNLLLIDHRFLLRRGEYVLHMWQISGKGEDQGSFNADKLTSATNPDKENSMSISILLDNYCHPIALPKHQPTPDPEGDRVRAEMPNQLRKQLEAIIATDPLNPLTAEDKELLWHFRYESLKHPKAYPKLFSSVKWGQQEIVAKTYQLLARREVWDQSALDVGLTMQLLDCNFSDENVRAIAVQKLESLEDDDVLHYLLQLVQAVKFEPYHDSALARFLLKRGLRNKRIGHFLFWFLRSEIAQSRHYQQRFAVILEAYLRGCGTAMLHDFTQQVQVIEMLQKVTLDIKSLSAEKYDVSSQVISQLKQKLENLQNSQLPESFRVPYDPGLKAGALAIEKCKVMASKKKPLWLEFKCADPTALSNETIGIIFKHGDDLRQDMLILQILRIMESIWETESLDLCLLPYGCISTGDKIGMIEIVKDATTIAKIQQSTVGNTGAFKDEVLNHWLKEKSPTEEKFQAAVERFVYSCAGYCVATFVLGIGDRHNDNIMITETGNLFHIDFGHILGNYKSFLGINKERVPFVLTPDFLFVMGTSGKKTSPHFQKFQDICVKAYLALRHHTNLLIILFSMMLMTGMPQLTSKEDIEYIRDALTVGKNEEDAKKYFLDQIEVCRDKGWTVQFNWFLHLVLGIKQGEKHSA
Casein kinase I isoform gamma-2 (Homo sapiens), sequence (P78368 whole entry, looked up, canonical isoform): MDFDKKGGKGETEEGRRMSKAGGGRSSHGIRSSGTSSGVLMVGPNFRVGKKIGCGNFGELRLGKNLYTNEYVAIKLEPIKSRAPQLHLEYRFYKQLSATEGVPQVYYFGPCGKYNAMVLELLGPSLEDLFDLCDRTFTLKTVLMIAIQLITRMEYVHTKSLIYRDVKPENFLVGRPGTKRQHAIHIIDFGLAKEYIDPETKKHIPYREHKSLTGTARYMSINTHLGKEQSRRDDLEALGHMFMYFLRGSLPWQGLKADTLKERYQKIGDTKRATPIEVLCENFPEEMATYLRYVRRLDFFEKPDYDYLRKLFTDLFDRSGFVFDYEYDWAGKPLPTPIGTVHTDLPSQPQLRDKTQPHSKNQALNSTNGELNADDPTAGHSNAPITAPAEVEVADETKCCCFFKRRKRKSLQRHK
Eukaryotic elongation factor 2 kinase, sequence (O00418 whole entry): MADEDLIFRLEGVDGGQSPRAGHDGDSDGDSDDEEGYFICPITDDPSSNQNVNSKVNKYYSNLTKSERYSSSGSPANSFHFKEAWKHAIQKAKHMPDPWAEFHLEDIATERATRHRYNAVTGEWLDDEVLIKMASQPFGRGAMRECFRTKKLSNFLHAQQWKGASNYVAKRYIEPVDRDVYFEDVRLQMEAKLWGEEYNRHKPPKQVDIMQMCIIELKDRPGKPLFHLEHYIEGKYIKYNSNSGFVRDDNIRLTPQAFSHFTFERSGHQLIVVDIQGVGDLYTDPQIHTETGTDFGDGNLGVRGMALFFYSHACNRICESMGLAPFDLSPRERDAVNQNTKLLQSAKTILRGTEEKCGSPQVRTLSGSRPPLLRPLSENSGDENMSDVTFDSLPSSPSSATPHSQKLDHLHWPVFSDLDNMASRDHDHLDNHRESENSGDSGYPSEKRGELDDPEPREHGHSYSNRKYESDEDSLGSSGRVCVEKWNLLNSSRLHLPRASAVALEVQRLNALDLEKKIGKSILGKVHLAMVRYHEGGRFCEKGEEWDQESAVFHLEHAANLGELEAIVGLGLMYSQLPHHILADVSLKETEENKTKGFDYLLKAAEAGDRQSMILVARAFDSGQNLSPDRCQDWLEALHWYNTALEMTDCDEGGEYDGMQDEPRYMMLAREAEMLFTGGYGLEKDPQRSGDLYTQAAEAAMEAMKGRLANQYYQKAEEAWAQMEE
NT-3 growth factor receptor, sequence (Q16288 32-839 limits assumed): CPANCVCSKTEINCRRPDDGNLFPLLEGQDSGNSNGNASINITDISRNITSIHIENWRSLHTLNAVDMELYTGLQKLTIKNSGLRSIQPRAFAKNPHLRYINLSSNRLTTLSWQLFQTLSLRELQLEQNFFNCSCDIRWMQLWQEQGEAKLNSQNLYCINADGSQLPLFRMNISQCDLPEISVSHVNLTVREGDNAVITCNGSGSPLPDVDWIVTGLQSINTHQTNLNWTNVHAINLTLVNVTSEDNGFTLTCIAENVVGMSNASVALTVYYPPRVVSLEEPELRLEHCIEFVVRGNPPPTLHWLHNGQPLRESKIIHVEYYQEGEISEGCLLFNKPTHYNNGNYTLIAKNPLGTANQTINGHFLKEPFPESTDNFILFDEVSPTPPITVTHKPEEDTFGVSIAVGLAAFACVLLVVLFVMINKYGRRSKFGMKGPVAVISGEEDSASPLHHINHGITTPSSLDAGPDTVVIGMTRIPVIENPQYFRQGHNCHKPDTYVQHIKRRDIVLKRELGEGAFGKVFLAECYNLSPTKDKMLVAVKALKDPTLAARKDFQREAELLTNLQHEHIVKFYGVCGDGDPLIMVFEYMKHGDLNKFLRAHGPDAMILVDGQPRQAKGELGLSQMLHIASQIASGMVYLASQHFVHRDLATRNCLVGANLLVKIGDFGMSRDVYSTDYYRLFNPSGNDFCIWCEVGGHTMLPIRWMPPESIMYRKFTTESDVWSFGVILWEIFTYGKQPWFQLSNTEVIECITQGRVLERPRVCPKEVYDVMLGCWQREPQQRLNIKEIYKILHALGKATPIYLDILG
MAP kinase-activated protein kinase 2, sequence (P49137 whole entry, looked up): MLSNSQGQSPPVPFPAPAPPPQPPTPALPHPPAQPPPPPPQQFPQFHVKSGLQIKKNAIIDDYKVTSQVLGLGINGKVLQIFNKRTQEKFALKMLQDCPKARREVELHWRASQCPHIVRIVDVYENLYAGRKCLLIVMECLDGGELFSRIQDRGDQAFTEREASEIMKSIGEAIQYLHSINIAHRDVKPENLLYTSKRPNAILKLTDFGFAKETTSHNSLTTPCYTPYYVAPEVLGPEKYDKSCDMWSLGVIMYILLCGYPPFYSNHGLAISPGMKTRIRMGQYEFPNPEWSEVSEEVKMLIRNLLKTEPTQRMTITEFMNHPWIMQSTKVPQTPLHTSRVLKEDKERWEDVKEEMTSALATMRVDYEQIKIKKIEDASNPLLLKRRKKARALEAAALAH

Structure (SMILES): O=C(NOC[C@H](O)CO)c1ccc(F)c(F)c1Nc1ccc(I)cc1F
- % of control [1]: 84%

Structure (SMILES): Cc1cc(-c2ccnc(Nc3cnn(C)c3)n2)ccc1CNC(=O)N1CC(OC(C)C)C1
- % of control [2]: 23%

Structure (SMILES): CNC(=O)Nc1ccc(-c2nc(N3CC4CCC(C3)O4)c3cnn(C4CCC5(CC4)OCCO5)c3n2)cc1
- % of inhibition [3]: 3%
- % of control [4]: 95%

Structure (SMILES): CC[C@@H]1[C@H](F)C(=O)N[C@@H]1COc1nccc2cc(C(N)=O)c(OC)cc12 [ZIMLOVISERTIB]
- % of inhibition ([5]; at 0.01 µM): 3.8%
- % of inhibition ([5]; at 0.04 µM): -1.3%
- % of inhibition ([5]; at 0.2 µM): 2.2%
- % of inhibition ([5]; at 1 µM): -9.4%
- % of inhibition ([5]; at 5 µM): 1.5%

Structure (SMILES): CCc1cccc(CC)c1NC(=O)c1nn(C)c2c1CCc1cnc(Nc3ccc(C(=O)NC4CCN(C)CC4)cc3OC(F)(F)F)nc1-2
- IC50 [6]: > 10 µM

Structure (SMILES): Cc1cc(CN)cc(C)c1-c1ncn(C)c1-c1cncn1C
- dTM (Peregrin (Homo sapiens)): -1.75 K

Structure (SMILES): CCC(=O)N1CCN(c2ccc(-n3c(=O)ccc4cnc5ccc(-c6cnc7ccccc7c6)cc5c43)cc2C(F)(F)F)CC1
- % of control [7]: 81%

Structure (SMILES): Cc1cc([C@@H](C)Nc2ccccc2C(=O)O)c2nc(N3CCOCC3)cc(=O)n2c1 [AZD-6482]
- % of control [8]: 98%

Structure (SMILES): N#Cc1cccc(-c2c[nH]c3ncnc(N4CCOCC4)c23)c1
- % of control [9]: 79%
- % of control [10]: 83%
